# Assay results from patent publication US20140004108A1, “Methods for Modulation of Autophagy Through the Modulation of Autophagy-Enhancing Gene Products” (HARVARD MEDICAL SCHOOL, priority 2009, published 2014).
# Entries after “also recorded” stand apart in the source; their conditions may differ.
# How the values were obtained:
# Format in all cases: cell-based, human
# [1] = test system: LC3; test: Western blot of autophagy markers (LC3 II, p62, Atg12-Atg5); conditions: for autophagy by LC3 western blot (LC3 II/tubulin ratio): 100 ng/mL IGF1, 50 ng/mL FGF2, LIF or CLCF1, 10 μg/mL E64d, with or without 50 nM rapamycin pre-treatment
# Method: (§1) For the cytokine assays, cells were seeded at 0.5×10^5 in full medium in either 24-well (western) or 96-well (LC3-GFP quantification) plates. After 24 hours, cells were washed in PBS and serum-free OPTIMEM™ medium (Invitrogen) was added along with the indicated growth factors and/or cytokines for an additional 24 hours. Growth factors and cytokines used include human TNFα (Cell Sciences), human LIF (GeneScript Corporation), human FGF2 (ProSpec), human IGF1 (ProSpec), human SDF1 (Prospec) and human CLCF1 (R&D Systems). To induce starvation, cells were cultured for 24 hours in full media, washed in PBS and cultured for additional 4 hours in HBSS media (Invitrogen).
# (§2) For western blot analysis, lysosomal protease inhibitor E64d (Sigma) was added at a concentration of 10 μg/mL for the last 8-12 hours before cell lysis.
# (§3) For western blots, cells were lysed in Lammeli sample buffer, resolved on a 10-12% SDS-PAGE gel and transferred to PVDF membrane. The following antibodies were used: LC3 (Novus), p62 (Pharmigen), phospho-S6K (Thr389), phospho-Akt (Ser473), phospho-Stat3 (Tyr705), RelA, Sod1, phospho-PTEN (Ser380/Thr382/383) (all Cell Signaling), Bcl-2 (Santa Cruz), all at 1:1000, phospho-S6 (Ser235/236) (Cell Signaling) and phospho-ERK 1/2 (Sigma) at 1:2000, tubulin (Sigma) at 1:5000. Where indicated, blots were quantified using NIH ImageJ64 software.
# [2] = test system: H4 cells stably expressing LC3-GFP; test: LC3-GFP translocation to autophagosomes, image-based autophagy assay; conditions: for autophagy as measured by LC3-GFP translocation: H4 LC3-GFP cells grown in serum-free medium, treated with cytokine
# Method: (§4) H4 human neuroblastoma cells were cultured under standard tissue culture conditions in DMEM media supplemented with 10% normal calf serum, penicillin/streptomycin, sodium pyruvate (Invitrogen) and, where appropriate, 0.4-1.2 mg/mL G418. LC3-GFP and FYVE-dsRed H4 cells were generated as described in Zhang et al., PNAS, 102, 15545-15550 ([…]). To create a stable line expressing Lamp1, H4 cells were transfected with Lamp1-RFP plasmid using TRANSIT_LT1® transfection reagent (Mirus), followed by selection with 0.4 mg/mL G418. Bcl-2 expressing cell lines were created by infecting LC3-GFP and FYVE-dsRed H4 cells with pBabe-Bcl-2 retrovirus, followed by selection with 1 μg/mL puromycin.
# as §1, §2
# For the primary screens, an arrayed library of 21,121 siRNA pools covering the majority of the human genome were used (Dharmacon siARRAY™ siRNA library (Human Genome, G-005000-05), Thermo Fisher Scientific, Lafayette, Colo.). Each pool contained of 4 unique oligonucleotides targeting different sequences from the same gene. Each assay plate also included the following controls: non-targeting siRNA, mTOR siRNA, ATG5 siRNA and PLK1 siRNA (a transfection efficiency control). siRNAs were transiently transfected in triplicate into H4 cells stably expressing a LC3-GFP reporter at a final concentration of 40 nM using reverse transfection with the […]® reagent (Qiagen). […]® reagent was diluted 1:20 in DMEM and 8 μl of the mixture was added to wells of 384 well plates. The plates were centrifuged at 1,000 rpm, after which 2 μl of 1 μM arrayed siRNA pools were added to each well. After 30 minutes of incubation, 500 cells in 40 μl of media were added to the wells. Cells were incubated for 72 hours under standard culture conditions, counterstained with 0.5 μM Hoechst 33342 (Invitrogen) for 1 hour and fixed by addition of 30 μl of 8% paraformaldehyde. After 30 minutes, cells were washed 3 times with PBS prior to analysis.
# For secondary screens, a siRNA library was used in which the 4 siRNAs of each siRNA pool were separated into individual wells. The cells were transfected and treated as in the primary screen, except that siRNAs were used at a final concentration of 30 nM (1.5 μL/well of 1 uM stock) and […]® reagent was diluted 1:30 in OPTIMEM™ (Invitrogen). The secondary screen transfections were done in 2 rounds: in the first one a 1:1 mixture of H4 cells stably expressing LC3-GFP with FYVE-dsRed was transfected in triplicate; in the second round a 1:1 mixture of H4 cells expressing LC3-GFP with Lamp1-RFP was transfected in duplicate. All tertiary characterization screens were done in duplicate using a mixture of LC3-GFP and FYVE-dsRed cells. Each assay plate included 10-12 wells of non-targeting siRNA as well as mTOR, ATG5, PLK1 and, depending on screen, Vps34 or SOD1 siRNA controls.
# (§5) For high-throughput screens, cells were imaged on an automated CellWoRx microscope (Applied Precision) at 10× magnification using 2 wavelengths (350 nm to detect Hoechst, 488 nm to detect LC3-GFP) for the primary screens and 3 wavelengths (350 nm, 488 nm and 550 nm to detect Lamp1-RFP or FYVE-dsRed) for the secondary screens.
# [3] = test system: H4 cells; test: Western blot of signalling phosphorylation (phospho-ERK1/2, RSK, Stat3, Akt, Foxo3a, S6K); conditions: for activating phosphorylation of Stat3: H4, 50 ng/mL LIF or CLCF1
# Method: as §1, §3
# [4] = test system: type III PI3 kinase; test: FYVE-dsRed vesicle recruitment (PtdIns3P levels); conditions: FYVE-dsRed cells, 3MA 10 mM 8 hours or NAC
# Method: as §4, §5
# [5] = test system: GRP78 and GRP94; test: In-cell-western of KDEL (GRP78/GRP94) expression, ER stress; conditions: H4 cells
# Method: For quantitative analysis of mTORC1 signaling and induction of endoplasmic reticulum stress, in-cell-western analysis of rpS6 phosphorylation and KDEL (GRP78/GRP94) expression (‘KDEL’ disclosed as SEQ ID NO: 2), respectively, were performed. H4 cells were cultured in 384-well plates and fixed and counterstained as described for the LC3-GFP assay. Following imaging, the cells were permeabilized in PBS containing 0.2% Tx-100 and stained with ALEXA FLOUR®—680NHS-ester, a non-specific lysine reactive probe used to measure relative cell number, at 20 ng/mL for 15 minutes. Subsequently, the cells were washed with PBS containing 0.2% Tx-100 and incubated for 30 minutes in blocking buffer (LICOR® Blocking Buffer diluted 1:1 with PBS+0.2% Tx-100). Cells were then incubated overnight with a rabbit-anti-rpS6 phospho-235/236 (Cell Signaling Technologies), or mouse-anti-KDEL (Stressgen) antibody (‘KDEL’ disclosed as SEQ ID NO: 2) diluted 1:1000 in blocking buffer. […] The intensities of both, the rpS6 phospho-235/236 or KDEL staining (‘KDEL’ disclosed as SEQ ID NO: 2), and of NHS-ester staining were integrated, and the normalized phospho-S6 or KDEL score (‘KDEL’ disclosed as SEQ ID NO: 2) were calculated by dividing phospho-rpS6 or KDEL intensity (‘KDEL’ disclosed as SEQ ID NO: 2) by NHS-ester intensity. […]
molecule,measurement,setting,value
"N#CC(=C(/N)Sc1ccccc1N)/C(C#N)=C(/N)Sc1ccccc1N [UO126, reference compound]","inhibition of autophagy by FGF2, effect of MEK inhibitor","[1]; H4, serum-free, 50 ng/mL FGF2, 10 μg/mL E64d, pre-treatment with UO126",attenuated inhibition of autophagy; also recorded: prevented
LIF: human LIF (GeneScript Corporation); leukemia inhibitory factor,autophagy as measured by LC3-GFP translocation,[2],significant down-regulation of autophagy
same,autophagy by LC3 western blot (LC3 II/tubulin ratio),"[1]; H4, serum-free",able to suppress autophagy in the absence and presence of rapamycin
same,activating phosphorylation of Stat3,[3],increased activating phosphorylation of Stat3
"O=c1[nH]c2ccccc2n1C1CCN(Cc2ccc(-c3nc4cc5[nH]cnc5cc4nc3-c3ccccc3)cc2)CC1 [Akt inhibitor VIII, reference compound]","inhibition of autophagy by IGF1, effect of Akt inhibitor","[1]; 100 ng/mL IGF1, LC3 western",prevented inhibition of autophagy by IGF1
same,phosphorylation of Foxo3a and S6 kinase,[3]; IGF1-treated cells with Akt inhibitor VIII,attenuated phosphorylation of both Foxo3a and the mTORC1 target S6 kinase
SDF1: human SDF1 (Prospec); chemokine SDF1 (CXCL12),autophagy as measured by LC3-GFP translocation,[2],significant down-regulation of autophagy
"CC(=O)N[C@@H](CS)C(=O)O [NAC, N-acetyl-L-cysteine, reference compound]",induction of autophagy caused by knock-down of Sod1,"[2]; H4 LC3-GFP, with antioxidant NAC 2.5 mM",significantly attenuated induction of autophagy
same,Aβ-induced accumulation of PtdIns3P in presence of inhibitor or antioxidant,[4],suppressed
TNFα,"autophagy (LC3-GFP), higher doses","[2]; H4 LC3-GFP cells in defined medium, higher doses of TNFα",up-regulation of autophagy
same,"autophagy (LC3-GFP), low doses","[2]; H4 LC3-GFP cells in defined medium, low doses of TNFα",down-regulation of autophagy
same,p62 level by western blot,"[1]; H4 cells, low levels of TNFα (5 ng/ml, FIG. 31B)",significant accumulation of p62
tunicamycin [reference compound],autophagy after ER stress inducer,[2]; H4 cells,increase in autophagy
same,levels of GRP78 and GRP94 (ER stress markers),[5],dose-dependent up-regulation of GRP78 and GRP94
FGF2: human FGF2 (ProSpec); fibroblast growth factor 2 (basic),autophagy as measured by LC3-GFP translocation,[2],significant down-regulation of autophagy
same,autophagy by LC3 western blot (LC3 II/tubulin ratio),"[1]; H4, serum-free",able to suppress autophagy in the absence and presence of rapamycin
same,phospho-ERK1/2 and phospho-RSK levels,"[3]; H4, serum-free, 50 ng/mL FGF2",increased level of phospho-ERK1/2 and phospho-RSK
IGF1: human IGF1 (ProSpec); insulin-like growth factor 1,autophagy as measured by LC3-GFP translocation,[2],significant down-regulation of autophagy
same,autophagy by LC3 western blot (LC3 II/tubulin ratio),"[1]; H4, serum-free",able to suppress autophagy in the absence and presence of rapamycin
same,phosphorylation of Akt and Foxo3a,"[3]; in both the absence and presence of rapamycin, 100 ng/mL IGF1",increased
"CLCF1: human CLCF1 (R&D Systems); cardiotrophin-like cytokine factor 1 (protein, UniProt Q9UBD9 28-225, looked up) Cardiotrophin-like cytokine …: LNRTGDPGPGPSIQKTYDLTRYLEHQLRSLAGTYLNYLGPPFNEPDFNPPRLGAETLPRATVDLEVWRSLNDKLRLTQNYEAYSHLLCYLRGLNRQAATAELRRSLAHFCTSLQGLLGSIAGVMAALGYPLPQPLPGTEPTWTPGPAHSDFLQKMDDFWLLKELQTWLWRSAKDFNRLKKKMQPPAAAVTLHLGAHGF",autophagy as measured by LC3-GFP translocation,[2],significant down-regulation of autophagy
same,autophagy by LC3 western blot (LC3 II/tubulin ratio),"[1]; H4, serum-free",able to suppress autophagy in the absence and presence of rapamycin
same,activating phosphorylation of Stat3,[3],increased activating phosphorylation of Stat3
